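Step 1: Grow cells in 96-well plates. Step 2: Expose to compound for 48 hours at 5 concentrations. Step 3: Interpolate endpoints linearly; if unreached, use highest concentration. At the TGI there is no net growth.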
Assays:
Assay in all cases: growth of human tumour cells (NCI), 48 h
[1] = system: M14 melanoma
[2] = system: DU-145 prostate
[3] = system: HL-60(TB) leukemia
[4] = system: SN12C renal
[5] = system: UACC-257 melanoma
[6] = system: 786-0 renal
[7] = system: SK-MEL-2 melanoma
[8] = system: HS 578T breast
[9] = system: UACC-62 melanoma
[10] = system: NCI-H23 lung
[11] = system: SF-295 CNS
[12] = system: SNB-75 CNS
[13] = system: NCI-H460 lung
[14] = system: COLO 205 colon
[15] = system: K-562 leukemia
[16] = system: SF-539 CNS
[17] = system: TK-10 renal
[18] = system: UO-31 renal
[19] = system: U251 CNS
[20] = system: NCI/ADR-RES ovarian
[21] = system: OVCAR-5 ovarian
[22] = system: OVCAR-4 ovarian
[23] = system: SR leukemia
[24] = system: MCF7 breast
[25] = system: MDA-MB-231 breast
[26] = system: PC-3 prostate
[27] = system: HT29 colon
[28] = system: ACHN renal
[29] = system: IGROV1 ovarian
[30] = system: SF-268 CNS
[31] = system: CCRF-CEM leukemia
[32] = system: MALME-3M melanoma
[33] = system: A498 renal
[34] = system: T-47D breast
[35] = system: HOP-62 NSCLC
[36] = system: RPMI-8226 leukemia
[37] = system: EKVX NSCLC
[38] = system: MOLT-4 leukemia
[39] = system: A549 NSCLC
[40] = system: LOX IMVI melanoma
[41] = system: NCI-H226 lung
[42] = system: SNB-19 CNS
[43] = system: HCT-116 colon
[44] = system: SK-MEL-28 melanoma
[45] = system: SW-620 colon
[46] = system: OVCAR-8 ovarian
[47] = system: MDA-MB-435
[48] = system: HCT-15 colon
[49] = system: NCI-H522 lung
[50] = system: CAKI-1 renal
[51] = system: SK-MEL-5 melanoma

O=[n+]1c2ccccc2n([O-])c2ccccc21
TGI [1]: > 100 µM | TGI [2]: > 100 µM | TGI [3]: 72.4 µM | TGI [4]: > 100 µM | TGI [5]: > 100 µM | TGI [6]: > 100 µM | TGI [7]: > 100 µM | TGI [8]: > 100 µM | TGI [9]: > 100 µM | TGI [10]: > 100 µM | TGI [11]: > 100 µM | TGI [12]: > 100 µM | TGI [13]: > 100 µM | TGI [14]: > 100 µM | TGI [15]: > 100 µM | TGI [16]: > 100 µM | TGI [17]: > 100 µM | TGI [18]: > 100 µM | TGI [19]: > 100 µM | TGI [20]: > 100 µM | TGI [21]: > 100 µM | TGI [22]: > 100 µM | TGI [23]: > 100 µM | TGI [24]: > 100 µM | TGI [25]: > 100 µM | TGI [26]: > 100 µM | TGI [27]: > 100 µM | TGI [28]: > 100 µM | TGI [29]: > 100 µM | TGI [30]: > 100 µM | TGI [31]: > 100 µM | TGI [32]: > 100 µM | TGI [33]: > 100 µM | TGI [34]: > 100 µM | TGI [35]: > 100 µM | TGI [36]: > 100 µM | TGI [37]: > 100 µM | TGI [38]: 81.2 µM | TGI [39]: > 100 µM | TGI [40]: > 100 µM | TGI [41]: > 100 µM | TGI [42]: > 100 µM | TGI [43]: > 100 µM | TGI [44]: > 100 µM | TGI [45]: > 100 µM | TGI [46]: > 100 µM | TGI [47]: > 100 µM | TGI [48]: > 100 µM | TGI [49]: > 100 µM | TGI [50]: > 100 µM | TGI [51]: > 100 µM

From PubChem BioAssay (NCI)
